Data set [1] has as its system p53-dependent transcription in ARN8 human melanoma cells. The data set can be described thus: p53-dependent transcription reporter (CPRG assay) in ARN8 cells. The data set is classed as cell-based. To be noted: ARN8, 16 h. As to the method:
A 20,000 compound library was purchased from ChemBridge consisting of 10,000 from the DIVERSet and 10,000 from the CombiSet libraries. […] A total of 30,000 additional compounds from the ChemBridge DIVERSet that were previously screened in a T22 cell background[12] were re-screened in ARN8 cells at 5 µM. The ChemBridge codes for these compounds can be made available upon request. All chemical synthesis is detailed in Supplementary Information with NMR spectra and reaction schemes detailed in Supplementary Figs. 13–19.

In another data set the test system is ARN8 cells. The experiment in a line: Giemsa staining of ARN8 cultures (uridine, orotic acid, dihydroorotic acid supplementation). It is filed as cell-based, human. Conditions: 72 h, 2.5 or 5 μM uridine, serum replacement medium. The procedure: Additionally, ARN8 cells were treated for 16 h and p53-dependent transcription was measured by CPRG assay. Values correspond to the average of three technical repeats ± SD. c Simplified description of the pyrimidine nucleotide de novo (blue) and salvage (black) pathways. d ARN8 cells were seeded in FBS supplemented DMEM with a change to serum replacement medium 24 h post seeding. […] Values correspond to the average of three technical repeats ± SD. f ARN8 cells were seeded in FBS supplemented DMEM with a change to serum replacement medium 24 h post seeding.

The subject of a further data set is ARN8 xenograft. The experiment in a line: ARN8 subcutaneous xenograft. The data set is classed as in vivo. As to the method: All animal xenograft experiments were approved by the Norwegian Animal Research Authority and conducted according to The European Convention for the Protection of Vertebrates Used for Scientific Purposes. […] The health status and weight of the mice were monitored daily and they were randomized in a non-blinded manner into 4 groups when tumor volumes reached 30–40 mm^3. […] Tumor volumes were measured every second day by a digital caliper using the following ellipsoid formula: Volume = π (length × width × height)/6.
To determine the efficacy of (R)-HZ05 in combination with nutlin-3a, 4 groups of NSG mice (n = 8 per group) were subcutaneously injected in the flank region with a single 100 μL injection of 2 × 10^6 ARN8 cells in a solution of PBS:Matrigel (volume ratio 3:1). Treatment was initiated when tumors reached ~50 mm^3. The maximum tolerated dose for this combination of drugs was previously determined for the strain we used. The endpoint of the experiment was determined by the tumor size ([…]) weight loss, and general condition of the mice according to The Norwegian Animal Research Authority.

A further data set addresses CDK1/CycA2 (Homo sapiens, UniProt P06493). The experiment in a line: biochemical. Also noted: radiometric 33PanQinase protein kinase activity assay, CDK/cyclin panel, per cent remaining activity. To be noted: read-out: (R)-HZ00 10 µM Average (% remaining activity). An excerpt: (§1) Supplementary Table 1. In vitro inhibition (% remaining activity) of cyclin-dependent
(§2) ProQinase GmbH (Freiburg, Germany) using a radiometric protein kinase assay
(§3) (33PanQinase® Activity Assay).
(§4) (1 picture or pasted object on this page, not shown here) 32 Supplementary Table 1. In vitro inhibition (% remaining activity) of cyclin-dependent kinases (CDKs).

Another data set deals with CDK1/CycB1 (Homo sapiens, UniProt P06493). The data set can be described thus: biochemical. Details: radiometric 33PanQinase protein kinase activity assay, CDK/cyclin panel, per cent remaining activity. To be noted: read-out: (R)-HZ00 10 µM Average (% remaining activity).
From the text: as §1, §2, §3, §4

Another data set has as its target CDK1/CycE1 (Homo sapiens, UniProt P06493). The experiment in a line: biochemical. Details: radiometric 33PanQinase protein kinase activity assay, CDK/cyclin panel, per cent remaining activity. Conditions: read-out: (R)-HZ00 10 µM Average (% remaining activity).
From the text: as §1, §2, §3, §4

In the next data set the target is CDK2/CycA2 (Homo sapiens, UniProt P24941). The data set can be described thus: biochemical. Also noted: radiometric 33PanQinase protein kinase activity assay, CDK/cyclin panel, per cent remaining activity. To be noted: read-out: (R)-HZ00 10 µM Average (% remaining activity).
From the text: as §1, §2, §3, §4

In another data set the target is CDK2/CycE1 (Homo sapiens, UniProt P24941). The experiment in a line: biochemical. Also noted: radiometric 33PanQinase protein kinase activity assay, CDK/cyclin panel, per cent remaining activity. To be noted: read-out: (R)-HZ00 10 µM Average (% remaining activity).
From the text: as §1, §2, §3, §4

The target in a further data set is CDK3/CycE1 (Homo sapiens, UniProt Q00526). The experiment in a line: biochemical. Also noted: radiometric 33PanQinase protein kinase activity assay, CDK/cyclin panel, per cent remaining activity. To be noted: read-out: (R)-HZ00 10 µM Average (% remaining activity).
From the text: as §1, §2, §3, §4

The next data set has as its target CDK4/CycD1 (Homo sapiens, UniProt P11802). The data set can be described thus: biochemical. Details: radiometric 33PanQinase protein kinase activity assay, CDK/cyclin panel, per cent remaining activity. To be noted: read-out: (R)-HZ00 10 µM Average (% remaining activity).
From the text: as §1, §2, §3, §4

For another data set, the target named is CDK4/CycD3 (Homo sapiens, UniProt P11802). The data set can be described thus: biochemical. Also noted: radiometric 33PanQinase protein kinase activity assay, CDK/cyclin panel, per cent remaining activity. To be noted: read-out: (R)-HZ00 10 µM Average (% remaining activity).
CDK4/CycD3, sequence (P11802 whole entry): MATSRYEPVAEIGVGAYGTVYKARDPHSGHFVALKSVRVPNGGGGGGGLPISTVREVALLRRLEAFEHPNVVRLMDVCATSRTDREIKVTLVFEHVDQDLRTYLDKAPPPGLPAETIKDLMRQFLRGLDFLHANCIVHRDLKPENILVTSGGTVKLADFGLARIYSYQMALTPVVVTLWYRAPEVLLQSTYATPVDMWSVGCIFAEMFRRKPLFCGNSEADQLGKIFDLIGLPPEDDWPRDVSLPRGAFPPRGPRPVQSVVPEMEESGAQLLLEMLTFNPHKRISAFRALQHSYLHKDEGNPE
CDK4/CycD3, sequence (P30281 whole entry partner): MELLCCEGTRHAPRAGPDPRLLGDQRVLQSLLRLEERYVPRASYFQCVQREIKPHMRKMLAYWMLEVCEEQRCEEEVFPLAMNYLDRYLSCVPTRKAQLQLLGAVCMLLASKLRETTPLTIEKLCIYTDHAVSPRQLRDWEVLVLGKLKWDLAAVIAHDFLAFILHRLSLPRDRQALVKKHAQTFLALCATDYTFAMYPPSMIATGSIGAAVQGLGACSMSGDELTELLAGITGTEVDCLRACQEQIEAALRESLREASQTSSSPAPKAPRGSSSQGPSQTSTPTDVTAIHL
From the text: as §1, §2, §3, §4

The target of another data set is T1, CDK5/p25NCK (Homo sapiens, UniProt Q00535).
T1 construct: p25
T1 sequence (Q00535 whole entry): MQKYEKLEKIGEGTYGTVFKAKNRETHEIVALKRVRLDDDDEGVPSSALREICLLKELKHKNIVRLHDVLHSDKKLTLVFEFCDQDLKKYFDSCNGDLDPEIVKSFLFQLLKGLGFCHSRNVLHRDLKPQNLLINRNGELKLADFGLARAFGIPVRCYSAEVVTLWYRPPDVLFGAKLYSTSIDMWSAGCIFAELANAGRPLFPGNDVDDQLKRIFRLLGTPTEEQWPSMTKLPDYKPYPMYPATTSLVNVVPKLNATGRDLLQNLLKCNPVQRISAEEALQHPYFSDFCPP
T1 sequence (Q15078 whole entry partner): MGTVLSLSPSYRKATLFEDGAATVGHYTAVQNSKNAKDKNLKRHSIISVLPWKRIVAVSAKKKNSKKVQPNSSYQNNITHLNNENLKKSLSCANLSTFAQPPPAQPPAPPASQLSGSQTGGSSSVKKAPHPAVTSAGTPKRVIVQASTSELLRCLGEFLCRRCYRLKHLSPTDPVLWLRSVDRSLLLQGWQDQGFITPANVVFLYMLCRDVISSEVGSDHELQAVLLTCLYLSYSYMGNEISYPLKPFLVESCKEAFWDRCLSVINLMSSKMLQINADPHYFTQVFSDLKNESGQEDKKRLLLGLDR
The data set can be described thus: biochemical. Details: radiometric 33PanQinase protein kinase activity assay, CDK/cyclin panel, per cent remaining activity. Conditions: read-out: (R)-HZ00 10 µM Average (% remaining activity).
From the text: as §1, §2, §3, §4

The target of a further data set is T2, CDK5/p35NCK (Homo sapiens, UniProt Q00535).
T2 construct: p35
T2 sequence (Q00535 whole entry): as the sequence (Q00535 whole entry) above
T2 sequence (Q15078 whole entry partner): as the sequence (Q15078 whole entry partner) above
The experiment in a line: biochemical. Also noted: radiometric 33PanQinase protein kinase activity assay, CDK/cyclin panel, per cent remaining activity. To be noted: read-out: (R)-HZ00 10 µM Average (% remaining activity).
From the text: as §1, §2, §3, §4

In a further data set the target is CDK6/CycD1 (Homo sapiens, UniProt Q00534). The data set can be described thus: biochemical. Conditions: read-out: (R)-HZ00 10 µM Average (% remaining activity). Also noted: radiometric 33PanQinase protein kinase activity assay, CDK/cyclin panel, per cent remaining activity.
CDK6/CycD1, sequence (Q00534 whole entry): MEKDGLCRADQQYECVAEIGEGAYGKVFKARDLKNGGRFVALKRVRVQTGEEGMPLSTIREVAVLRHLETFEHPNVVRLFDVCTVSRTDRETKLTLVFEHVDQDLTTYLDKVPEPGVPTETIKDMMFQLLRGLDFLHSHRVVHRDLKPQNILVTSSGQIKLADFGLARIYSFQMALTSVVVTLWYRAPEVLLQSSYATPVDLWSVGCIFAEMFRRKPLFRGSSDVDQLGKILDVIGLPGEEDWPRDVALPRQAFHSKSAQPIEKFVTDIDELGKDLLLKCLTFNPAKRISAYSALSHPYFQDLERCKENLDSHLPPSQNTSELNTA
CDK6/CycD1, sequence (P24385 whole entry partner): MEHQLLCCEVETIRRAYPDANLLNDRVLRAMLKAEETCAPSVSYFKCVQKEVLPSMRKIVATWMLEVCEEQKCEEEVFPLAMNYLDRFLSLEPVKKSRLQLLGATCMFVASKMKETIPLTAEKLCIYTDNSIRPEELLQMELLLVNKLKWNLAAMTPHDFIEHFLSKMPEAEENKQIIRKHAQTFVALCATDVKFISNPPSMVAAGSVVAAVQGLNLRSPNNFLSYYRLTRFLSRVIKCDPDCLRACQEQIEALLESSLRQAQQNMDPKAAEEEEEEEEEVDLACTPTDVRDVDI
From the text: as §1, §2, §3, §4

The next data set has as its target CDK7/CycH/MAT1 (Homo sapiens, UniProt P50613). The experiment in a line: biochemical. Details: radiometric 33PanQinase protein kinase activity assay, CDK/cyclin panel, per cent remaining activity. Conditions: read-out: (R)-HZ00 10 µM Average (% remaining activity).
From the text: as §1, §2, §3, §4

The next data set has as its target CDK8/CycC (Homo sapiens, UniProt P49336). The experiment in a line: biochemical. Details: radiometric 33PanQinase protein kinase activity assay, CDK/cyclin panel, per cent remaining activity. To be noted: read-out: (R)-HZ00 10 µM Average (% remaining activity).
From the text: as §1, §2, §3, §4

The target of another data set is CDK9/CycK (Homo sapiens, UniProt P50750). The experiment in a line: biochemical. Also noted: radiometric 33PanQinase protein kinase activity assay, CDK/cyclin panel, per cent remaining activity. Conditions: read-out: (R)-HZ00 10 µM Average (% remaining activity).
CDK9/CycK, sequence (P50750 whole entry): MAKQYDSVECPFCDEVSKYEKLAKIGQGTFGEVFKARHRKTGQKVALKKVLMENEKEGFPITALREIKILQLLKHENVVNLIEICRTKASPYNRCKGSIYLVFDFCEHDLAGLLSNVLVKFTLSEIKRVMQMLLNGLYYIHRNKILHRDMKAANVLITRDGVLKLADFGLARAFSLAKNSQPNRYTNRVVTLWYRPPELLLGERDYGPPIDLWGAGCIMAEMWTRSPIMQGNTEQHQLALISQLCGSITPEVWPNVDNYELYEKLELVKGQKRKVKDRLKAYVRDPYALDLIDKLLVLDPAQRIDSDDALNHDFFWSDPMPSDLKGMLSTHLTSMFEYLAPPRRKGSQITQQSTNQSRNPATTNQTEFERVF
CDK9/CycK, sequence (O75909 whole entry partner): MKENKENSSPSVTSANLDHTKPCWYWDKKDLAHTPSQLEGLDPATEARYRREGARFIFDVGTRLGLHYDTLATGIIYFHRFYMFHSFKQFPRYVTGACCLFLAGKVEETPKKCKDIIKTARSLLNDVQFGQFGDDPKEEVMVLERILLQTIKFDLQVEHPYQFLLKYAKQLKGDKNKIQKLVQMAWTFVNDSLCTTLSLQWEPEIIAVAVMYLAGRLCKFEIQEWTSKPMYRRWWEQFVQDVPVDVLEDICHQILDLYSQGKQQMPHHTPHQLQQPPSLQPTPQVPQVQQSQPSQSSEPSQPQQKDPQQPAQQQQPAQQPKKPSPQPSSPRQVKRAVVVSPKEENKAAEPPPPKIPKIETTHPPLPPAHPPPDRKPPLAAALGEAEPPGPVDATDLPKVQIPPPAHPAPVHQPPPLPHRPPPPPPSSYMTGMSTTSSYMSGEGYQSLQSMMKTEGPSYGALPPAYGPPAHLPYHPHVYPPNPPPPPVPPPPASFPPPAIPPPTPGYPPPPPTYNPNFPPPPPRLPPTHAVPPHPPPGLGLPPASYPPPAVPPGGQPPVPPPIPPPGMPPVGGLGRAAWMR
From the text: as §1, §2, §3, §4

Another data set deals with CDK9/CycT1 (Homo sapiens, UniProt P50750). The data set can be described thus: biochemical. Also noted: radiometric 33PanQinase protein kinase activity assay, CDK/cyclin panel, per cent remaining activity. To be noted: read-out: (R)-HZ00 10 µM Average (% remaining activity).
CDK9/CycT1, sequence (P50750 whole entry): as the sequence (P50750 whole entry) above
CDK9/CycT1, sequence (O60563 whole entry partner): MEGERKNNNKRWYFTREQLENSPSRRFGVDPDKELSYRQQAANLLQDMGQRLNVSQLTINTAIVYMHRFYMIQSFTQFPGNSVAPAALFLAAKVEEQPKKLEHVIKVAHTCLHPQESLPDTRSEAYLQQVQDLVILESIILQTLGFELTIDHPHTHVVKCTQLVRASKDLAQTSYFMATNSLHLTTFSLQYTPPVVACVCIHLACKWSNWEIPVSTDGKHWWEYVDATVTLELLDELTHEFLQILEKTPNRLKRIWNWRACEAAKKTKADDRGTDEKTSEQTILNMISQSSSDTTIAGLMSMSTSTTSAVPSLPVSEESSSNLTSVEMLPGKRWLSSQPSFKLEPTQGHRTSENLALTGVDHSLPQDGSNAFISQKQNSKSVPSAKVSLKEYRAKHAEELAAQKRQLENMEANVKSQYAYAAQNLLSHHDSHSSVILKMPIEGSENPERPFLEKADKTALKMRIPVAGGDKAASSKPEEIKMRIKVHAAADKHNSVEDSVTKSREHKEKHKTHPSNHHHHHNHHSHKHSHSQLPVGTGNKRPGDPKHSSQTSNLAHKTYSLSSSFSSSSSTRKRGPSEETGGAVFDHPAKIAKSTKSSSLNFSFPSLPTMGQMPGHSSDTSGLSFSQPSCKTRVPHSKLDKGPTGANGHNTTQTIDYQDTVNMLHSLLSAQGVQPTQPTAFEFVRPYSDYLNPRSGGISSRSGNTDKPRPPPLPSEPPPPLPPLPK
From the text: as §1, §2, §3, §4

The target of a further data set is T3, PCTAIRE1/CycY (Homo sapiens, UniProt Q00536).
T3 construct: gene CDK16
T3 sequence (Q00536 whole entry): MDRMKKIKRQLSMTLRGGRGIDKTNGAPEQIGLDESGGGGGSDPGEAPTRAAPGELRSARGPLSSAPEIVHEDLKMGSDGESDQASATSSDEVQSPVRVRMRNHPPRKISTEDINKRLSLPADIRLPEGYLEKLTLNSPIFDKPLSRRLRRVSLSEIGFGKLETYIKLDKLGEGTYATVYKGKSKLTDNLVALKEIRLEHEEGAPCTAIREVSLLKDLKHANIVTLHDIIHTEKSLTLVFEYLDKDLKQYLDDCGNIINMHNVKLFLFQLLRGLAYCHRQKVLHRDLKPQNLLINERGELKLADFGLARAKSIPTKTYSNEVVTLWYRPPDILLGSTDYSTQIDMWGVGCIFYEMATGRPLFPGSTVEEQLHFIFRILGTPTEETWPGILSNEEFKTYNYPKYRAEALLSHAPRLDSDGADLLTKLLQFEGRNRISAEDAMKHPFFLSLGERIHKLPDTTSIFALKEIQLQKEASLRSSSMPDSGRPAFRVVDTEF
T3 sequence (Q8ND76 whole entry partner): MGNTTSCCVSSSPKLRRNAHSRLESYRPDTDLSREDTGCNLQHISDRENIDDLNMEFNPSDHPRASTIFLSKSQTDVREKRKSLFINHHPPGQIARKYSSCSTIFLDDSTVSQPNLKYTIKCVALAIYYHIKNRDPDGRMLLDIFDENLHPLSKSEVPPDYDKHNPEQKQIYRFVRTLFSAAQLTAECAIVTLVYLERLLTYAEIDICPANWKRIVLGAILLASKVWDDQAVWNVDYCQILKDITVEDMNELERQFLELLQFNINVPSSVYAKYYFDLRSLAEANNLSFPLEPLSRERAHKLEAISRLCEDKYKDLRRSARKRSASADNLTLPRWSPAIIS
The experiment in a line: biochemical. Also noted: radiometric 33PanQinase protein kinase activity assay, CDK/cyclin panel, per cent remaining activity. To be noted: read-out: (R)-HZ00 10 µM Average (% remaining activity).
From the text: as §1, §2, §3, §4

CDK4/CycD1, sequence (P11802 whole entry): as the sequence (P11802 whole entry) above
CDK4/CycD1, sequence (P24385 whole entry partner): as the sequence (P24385 whole entry partner) above

With `O=C(N[C@@H]1CCCc2c1cnn2-c1ccccc1F)c1ccccn1` [(R)-HZ00], the “p53 reporter activity, (R)- versus (S)-enantiomer” value in [1] was “significantly higher p53 reporter activity”. Also, the “tumor cell growth at physiological uridine levels” value in the data set on ARN8 cells is “markedly reduce tumor cell growth”. Besides, the “xenograft tumor growth, combination with nutlin-3” value with ARN8 xenograft ((R)-HZ00 150 mg kg−1 i.p. q.d. + nutlin-3 100 mg kg−1 p.o. q.d.) is on record as “significant ARN8 xenograft tumor growth inhibition”. Besides, the “toxicity in xenograft study” value with ARN8 xenograft (mice, (R)-HZ00 150 mg kg−1 i.p. q.d., nutlin-3 100 mg kg−1 p.o. q.d.) was “not toxic”. Moreover, the remaining activity at 10 µM on CDK1/CycA2 came to 90.9%; on CDK1/CycB1, 100%; at CDK1/CycE1, 103%; on CDK2/CycA2, 101%; on CDK2/CycE1, 96.8%; at CDK3/CycE1, 90.8%. Moreover, the remaining activity at 10 µM on CDK4/CycD1 amounted to 104%; at CDK4/CycD3, 98.3%; at CDK5/p25NCK it was 113%; on CDK5/p35NCK, 101%; on CDK6/CycD1, 97.1%; on CDK7/CycH/MAT1, 105%. Moreover, the remaining activity at 10 µM stood at 92.4% on CDK8/CycC, 95.9% on CDK9/CycK, 107% on CDK9/CycT1 and 95.4% at PCTAIRE1/CycY.

Source of the values: publication PMC5856786, “A DHODH inhibitor increases p53 synthesis and enhances tumor cell killing by p53 degradation blockage” (Nature Communications, 2018).
